Measured values taken from patent US20230079819A1, “COMPOUNDS AND USES THEREOF” (Foghorn Therapeutics Inc., priority 2019, published 2023).
Where two headings read alike, the source gives them in different places.

Assays:
BRG-1 = biological target: T1, BRG-1 (Homo sapiens, UniProt P51532); experiment: ATPase catalytic activity of BRG-1, ADP-Glo in vitro biochemical assay; conditions: 30 nM BRG-1, 400 μM ATP
T1 construct: made in house; host or cells: High Five insect cells

BRM = biological target: T2, BRM (Homo sapiens, UniProt P51531); experiment: ATPase catalytic activity of BRM, ADP-Glo in vitro biochemical assay; conditions: 30 nM BRM, 400 μM ATP
T2 construct: made in house; host or cells: High Five insect cells

[1] = ATPase catalytic activity, read-out: BRG1 IP50 (μM)*
[2] = ATPase catalytic activity, read-out: BRM IP50 (μM)*
[3] = ATPase catalytic activity, read-out: BRG1 IP50
[4] = ATPase catalytic activity, read-out: BRM IP50

T2 sequence (P51531 whole entry): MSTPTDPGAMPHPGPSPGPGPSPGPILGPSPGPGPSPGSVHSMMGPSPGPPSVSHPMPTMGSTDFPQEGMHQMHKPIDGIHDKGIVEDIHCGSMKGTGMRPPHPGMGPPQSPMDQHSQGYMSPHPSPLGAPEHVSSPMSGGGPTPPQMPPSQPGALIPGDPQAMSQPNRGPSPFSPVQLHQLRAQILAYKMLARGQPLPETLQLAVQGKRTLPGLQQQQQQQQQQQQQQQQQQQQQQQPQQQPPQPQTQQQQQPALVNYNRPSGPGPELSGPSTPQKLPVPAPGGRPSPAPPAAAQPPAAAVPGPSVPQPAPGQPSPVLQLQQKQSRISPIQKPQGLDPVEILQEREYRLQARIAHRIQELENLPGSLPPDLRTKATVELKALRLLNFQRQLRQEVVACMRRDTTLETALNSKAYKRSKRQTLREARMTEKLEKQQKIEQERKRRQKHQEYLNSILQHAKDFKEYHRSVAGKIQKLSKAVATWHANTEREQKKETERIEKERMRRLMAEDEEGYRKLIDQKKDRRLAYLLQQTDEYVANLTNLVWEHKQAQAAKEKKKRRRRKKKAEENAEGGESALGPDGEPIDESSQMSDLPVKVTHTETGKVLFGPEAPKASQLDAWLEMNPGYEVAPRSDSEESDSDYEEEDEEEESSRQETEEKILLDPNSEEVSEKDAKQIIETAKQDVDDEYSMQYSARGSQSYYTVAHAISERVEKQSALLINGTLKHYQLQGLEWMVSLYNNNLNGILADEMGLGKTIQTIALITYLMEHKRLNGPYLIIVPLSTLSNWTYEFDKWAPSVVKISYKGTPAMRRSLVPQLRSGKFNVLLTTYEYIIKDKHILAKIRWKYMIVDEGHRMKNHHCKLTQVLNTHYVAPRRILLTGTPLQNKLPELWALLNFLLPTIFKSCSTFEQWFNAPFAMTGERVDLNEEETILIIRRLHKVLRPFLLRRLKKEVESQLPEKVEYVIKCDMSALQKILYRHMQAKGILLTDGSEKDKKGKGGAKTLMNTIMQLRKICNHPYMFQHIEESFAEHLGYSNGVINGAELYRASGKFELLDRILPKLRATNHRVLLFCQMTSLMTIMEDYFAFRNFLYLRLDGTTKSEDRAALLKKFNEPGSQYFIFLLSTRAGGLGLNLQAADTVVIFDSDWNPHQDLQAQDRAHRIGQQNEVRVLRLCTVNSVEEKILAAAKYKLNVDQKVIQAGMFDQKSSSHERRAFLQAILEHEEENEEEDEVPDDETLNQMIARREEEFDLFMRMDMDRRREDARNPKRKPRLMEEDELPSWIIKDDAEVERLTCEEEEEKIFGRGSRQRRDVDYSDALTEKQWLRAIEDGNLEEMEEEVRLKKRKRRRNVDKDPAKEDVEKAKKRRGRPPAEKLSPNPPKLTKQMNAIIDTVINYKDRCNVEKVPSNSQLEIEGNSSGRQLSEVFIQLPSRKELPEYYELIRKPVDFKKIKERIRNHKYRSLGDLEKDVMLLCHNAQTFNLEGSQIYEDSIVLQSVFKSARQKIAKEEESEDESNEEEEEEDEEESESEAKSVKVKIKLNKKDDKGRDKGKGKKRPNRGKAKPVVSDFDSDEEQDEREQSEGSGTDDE
T1 sequence (P51532 whole entry): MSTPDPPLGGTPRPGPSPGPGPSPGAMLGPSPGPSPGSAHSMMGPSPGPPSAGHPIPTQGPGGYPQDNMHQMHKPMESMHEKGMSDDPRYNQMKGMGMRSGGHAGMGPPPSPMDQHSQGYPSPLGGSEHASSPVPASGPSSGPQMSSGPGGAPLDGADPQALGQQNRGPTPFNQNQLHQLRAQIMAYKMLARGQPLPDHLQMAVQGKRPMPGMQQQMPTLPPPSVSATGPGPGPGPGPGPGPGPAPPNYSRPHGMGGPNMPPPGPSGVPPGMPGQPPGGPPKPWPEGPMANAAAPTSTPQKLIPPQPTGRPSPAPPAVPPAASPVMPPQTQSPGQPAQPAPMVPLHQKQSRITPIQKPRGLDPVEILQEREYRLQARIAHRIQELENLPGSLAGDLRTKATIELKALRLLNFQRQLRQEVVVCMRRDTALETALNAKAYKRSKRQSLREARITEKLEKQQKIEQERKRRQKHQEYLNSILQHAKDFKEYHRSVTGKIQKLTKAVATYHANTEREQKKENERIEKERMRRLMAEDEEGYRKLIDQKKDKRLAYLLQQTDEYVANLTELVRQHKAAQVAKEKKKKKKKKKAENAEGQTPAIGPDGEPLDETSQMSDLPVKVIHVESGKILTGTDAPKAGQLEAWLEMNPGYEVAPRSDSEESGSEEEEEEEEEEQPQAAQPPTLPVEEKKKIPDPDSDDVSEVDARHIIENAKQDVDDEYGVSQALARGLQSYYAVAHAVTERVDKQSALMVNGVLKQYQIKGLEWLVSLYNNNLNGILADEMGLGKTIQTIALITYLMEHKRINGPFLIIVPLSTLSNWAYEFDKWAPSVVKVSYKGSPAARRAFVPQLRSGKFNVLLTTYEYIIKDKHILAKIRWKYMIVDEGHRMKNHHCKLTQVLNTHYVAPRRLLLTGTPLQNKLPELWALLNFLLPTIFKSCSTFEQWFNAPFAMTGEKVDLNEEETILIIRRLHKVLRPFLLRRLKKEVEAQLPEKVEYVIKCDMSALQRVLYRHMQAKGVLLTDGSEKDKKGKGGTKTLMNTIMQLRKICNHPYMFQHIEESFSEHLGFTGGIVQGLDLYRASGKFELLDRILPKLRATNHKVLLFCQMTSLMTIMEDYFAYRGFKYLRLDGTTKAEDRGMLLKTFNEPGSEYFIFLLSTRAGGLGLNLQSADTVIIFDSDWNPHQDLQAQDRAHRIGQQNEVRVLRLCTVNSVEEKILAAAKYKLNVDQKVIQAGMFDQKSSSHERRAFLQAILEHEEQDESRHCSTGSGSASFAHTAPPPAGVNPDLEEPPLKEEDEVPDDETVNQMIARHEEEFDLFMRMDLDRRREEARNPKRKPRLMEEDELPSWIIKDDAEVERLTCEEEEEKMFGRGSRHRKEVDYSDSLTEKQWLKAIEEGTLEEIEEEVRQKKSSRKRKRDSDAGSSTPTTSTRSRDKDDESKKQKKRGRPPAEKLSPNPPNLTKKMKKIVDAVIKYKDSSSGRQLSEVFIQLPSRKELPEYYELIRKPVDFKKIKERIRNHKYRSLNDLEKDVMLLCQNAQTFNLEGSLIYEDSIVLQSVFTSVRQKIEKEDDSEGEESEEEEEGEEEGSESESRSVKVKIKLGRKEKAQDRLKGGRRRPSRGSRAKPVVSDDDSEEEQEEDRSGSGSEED

| IC50 (BRG-1; [1]) | IC50 (BRM; [2]) | IC50 (BRG-1; [3]) | IC50 (BRM; [4]) | Compound | also measured |
| --- | --- | --- | --- | --- | --- |
| > 0.01 µM | > 0.01 µM |  |  | COC(C)(C)C#Cc1cccc(-c2csc(NC(=O)CNC(=O)c3ccn(S(C)(=O)=O)c3)n2)c1 [Compound 363] |  |
| > 0.01 µM | > 0.01 µM |  |  | CC1(C)CN(c2cccc(-c3csc(NC(=O)CNC(=O)c4ccn(S(C)(=O)=O)c4)n3)c2)CCO1 [Compound 89, N-(2-((4-(3-(2,2-dimethylmorpholino)phenyl)thiazol-2-yl)amino)-2-oxoethyl)-1-(methylsulfonyl)-1H-pyrrole-3-carboxamide] |  |
| < 0.01 µM | < 0.01 µM |  |  | Cc1cc(C)cc(-c2cccc(-c3csc(NC(=O)CNC(=O)c4ccn(S(C)(=O)=O)c4)n3)c2)c1 [Compound 55, N-(2-((4-(3′,5′-dimethyl-[1,1′-biphenyl]-3-yl)thiazol-2-yl)amino)-2-oxoethyl)-1-(methylsulfonyl)-1H-pyrrole-3-carboxamide] |  |
| < 0.01 µM | < 0.01 µM |  |  | C[C@@H]1CN(c2cc(-c3csc(NC(=O)CNC(=O)c4ccn(S(C)(=O)=O)c4)n3)cc(F)c2F)C[C@H](C)O1 [Compound 384] |  |
| < 0.01 µM | < 0.01 µM |  |  | C[C@@H]1CN(c2nc(-c3csc(NC(=O)CNC(=O)c4ccn(S(C)(=O)=O)c4)n3)ccc2F)C[C@H](C)O1 [Compound 379] |  |
|  |  | > 0.01 µM | > 0.01 µM | COC[C@H](NC(=O)c1ccn(S(C)(=O)=O)c1)C(=O)Nc1nc(-c2cccc(OC(F)(F)F)c2)cs1 [Compound 459] |  |
|  |  | > 0.01 µM | > 0.01 µM | CC1(C)C=C(c2cccc(-c3csc(NC(=O)CNC(=O)c4ccn(S(C)(=O)=O)c4)n3)c2)CC(C)(C)O1 [Compound 411] |  |
| > 0.01 µM | < 0.01 µM |  |  | C[C@@H]1CN(c2cc(-c3csc(NC(=O)CNC(=O)c4ccn(C(C)(C)C)c4)n3)ccn2)C[C@H](C)O1 [Compound 299] |  |
| > 0.01 µM | > 0.01 µM |  |  | CO[C@H]1CN(c2cccc(-c3csc(NC(=O)CNC(=O)c4ccn(S(C)(=O)=O)c4)n3)c2)C[C@@H]1F [Compound 180] |  |
| > 0.01 µM | < 0.01 µM |  |  | C[C@@H]1CN(c2nc(-c3csc(NC(=O)CNC(=O)c4ccn(C5(C)COC5)c4)n3)ccc2F)C[C@H](C)O1 [Compound 378] |  |
| < 0.01 µM | < 0.01 µM |  |  | COC[C@H](NC(=O)c1ccn(S(C)(=O)=O)c1)C(=O)Nc1nc(-c2cccc(-c3ccnc(C)c3)c2)cs1 [Compound 60, (S)—N-(3-methoxy-1-((4-(3-(2-methylpyridin-4-yl)phenyl)thiazol-2-yl)amino)-1-oxopropan-2-yl)-1-(methylsulfonyl)-1H-pyrrole-3-carboxamide] |  |
|  |  | > 0.01 µM | > 0.01 µM | C[C@@H]1CN(c2cccc(-c3csc(NC(=O)[C@H](C)NC(=O)c4ccn(C5(C#N)CC5)c4)n3)n2)C[C@H](C)O1 [Compound 560] |  |
|  |  | > 0.01 µM | > 0.01 µM | CN1CCc2c(F)ccc(-c3csc(NC(=O)CNC(=O)c4ccn(S(C)(=O)=O)c4)n3)c21 [Compound 565] |  |
|  |  | > 0.01 µM | > 0.01 µM | CC(C)(C)n1ccc(C(=O)NCC(=O)Nc2nc(-c3cccc(C4CCCCO4)c3)cs2)c1 (stereo not drawn) [Compound 432] |  |
| > 0.01 µM | > 0.01 µM |  |  | C[C@H]1CN(c2cccc(-c3csc(NC(=O)CNC(=O)c4ccn(S(C)(=O)=O)c4)n3)c2)CC[C@H]1O [Compound 219] |  |
| > 0.01 µM | > 0.01 µM |  |  | CS(=O)(=O)n1ccc(C(=O)NCC(=O)Nc2nc(-c3cccc(OC(F)F)c3)cs2)c1 [Compound 285] |  |
| < 0.01 µM | < 0.01 µM |  |  | Cc1cc(-c2cccc(-c3csc(NC(=O)CNC(=O)c4ccn(S(C)(=O)=O)c4)n3)c2)ccn1 [Compound 154] |  |
|  |  | > 0.1 µM | > 0.01 µM | C[C@@H]1CN(c2cccc(-c3nc(NC(=O)CNC(=O)c4ccn(C(C)(C)C)c4)sc3F)n2)C[C@H](C)O1 [Compound 520, 1-(tert-butyl)-N-(2-((4-(6-(cis-2,6-dimethylmorpholino)pyridin-2-yl)-5-fluorothiazol-2-yl)amino)-2-oxoethyl)-1H-pyrrole-3-carboxamide] |  |
|  |  | > 0.01 µM | < 0.01 µM | CS(=O)(=O)n1ccc(C(=O)NCC(=O)Nc2nc(-c3cccc(-c4cc5n(n4)CCOC5)c3)cs2)c1 [Compound 404] |  |
|  |  | > 0.1 µM | > 0.1 µM | C[C@H](NC(=O)c1ccn(C(C)(C)C)c1)C(=O)Nc1nc(-c2cccc(-c3cnn(C)n3)n2)cs1 [Compound 488] |  |
|  |  | > 0.01 µM | > 0.01 µM | CS(=O)(=O)n1ccc(C(=O)NCC(=O)Nc2nc(-c3cccc(C45CCOCC4C5)c3)cs2)c1 (stereo not drawn) [Compound 743] |  |

| IC50 (BRG-1; [1]) | IC50 (BRM; [2]) | IC50 (BRG-1; [3]) | IC50 (BRM; [4]) | Compound | also measured |
| --- | --- | --- | --- | --- | --- |
|  |  | > 0.1 µM | > 0.1 µM | COC[C@@H](NC(=O)c1ccn(S(C)(=O)=O)c1)C(=O)Nc1nc(-c2cccc(-c3ccnc(OC)c3)c2)cs1 [Compound 444] |  |
| > 0.01 µM | > 0.01 µM |  |  | COC[C@H](NC(=O)c1ccn(C(C)(C)C)c1)C(=O)Nc1nc(-c2cccc(-c3ccn(C)n3)c2)cs1 [Compound 62, (S)-1-(tert-butyl)-N-(3-methoxy-1-((4-(3-(1-methyl-1H-pyrazol-3-yl)phenyl)thiazol-2-yl)amino)-1-oxopropan-2-yl)-1H-pyrrole-3-carboxamide] |  |
| < 0.01 µM | < 0.01 µM |  |  | CS(=O)(=O)n1ccc(C(=O)NCC(=O)Nc2nc(-c3cccc(N4CC[C@@H](O)[C@H](F)C4)c3)cs2)c1 [Compound 195] |  |
|  |  | < 0.01 µM | < 0.01 µM | CN(C)C(=O)C1(c2cc(-c3cccc(-c4csc(NC(=O)CNC(=O)c5ccn(S(C)(=O)=O)c5)n4)c3)ccn2)CC1 [Compound 439] |  |
|  |  | > 0.01 µM | > 0.01 µM | COC[C@H](NC(=O)c1ccn(S(C)(=O)=O)c1)C(=O)Nc1nc(-c2cccc(C#N)c2)cs1 [Compound 712] |  |
| > 0.1 µM | > 0.1 µM |  |  | CO[C@@H]1CCCN(c2cccc(-c3csc(NC(=O)CNC(=O)c4ccn(C(C)(C)C)c4)n3)c2)C1 [Compound 97, (R)-1-(tert-butyl)-N-(2-((4-(3-(3-methoxypiperidin-1-yl)phenyl)thiazol-2-yl)amino)-2-oxoethyl)-1H-pyrrole-3-carboxamide] |  |
|  |  | < 0.01 µM | < 0.01 µM | C[C@@H]1CN(c2cccc(-c3csc(NC(=O)CNC(=O)c4ccn(S(C)(=O)=O)c4)n3)c2)CC[C@H]1O [Compound 423] |  |
| > 0.01 µM | > 0.01 µM |  |  | Cc1cc(-c2cccc(-c3csc(NC(=O)CNC(=O)c4ccn(S(C)(=O)=O)c4)n3)c2)on1 [Compound 296] |  |
|  |  | > 0.1 µM | > 0.1 µM | CC(C)(C)n1ccc(C(=O)NCC(=O)Nc2nc(-c3cccc(N4CCC5(CCOC5)CC4)n3)cs2)c1 [Compound 626] |  |
| > 0.01 µM | < 0.01 µM |  |  | CS(=O)(=O)n1ccc(C(=O)NCC(=O)Nc2nc(-c3cccc(N4CCOCC4)c3)cs2)c1 [Compound 99, 1-methylsulfonyl-N-[2-[[4-(3-morpholinophenyl)thiazol-2-yl]amino]-2-oxo-ethyl]pyrrole-3-carboxamide] |  |
|  |  | > 0.01 µM | > 0.01 µM | CC(C)(N)Cn1ccc(-c2cccc(-c3csc(NC(=O)CNC(=O)c4ccn(C(C)(C)C)c4)n3)c2)n1 [Compound 434] |  |
| < 0.01 µM | < 0.01 µM |  |  | Cc1cc(-c2cccc(-c3csc(NC(=O)CNC(=O)c4ccn(C(C)(C)C)c4)n3)c2)ncn1 [Compound 22, 1-(tert-butyl)-N-(2-((4-(3-(6-methylpyrimidin-4-yl)phenyl)thiazol-2-yl)amino)-2-oxoethyl)-1H-pyrrole-3-carboxamide] |  |
| > 0.1 µM | > 0.1 µM |  |  | CC(C)(C)n1ccc(C(=O)NCC(=O)Nc2nc(-c3cccc(N4CC(N5CCOCC5)C4)n3)cs2)c1 [Compound 317] |  |
| > 0.1 µM | > 0.01 µM |  |  | C[C@@H]1CN(c2cccc(-c3csc(NC(=O)CNC(=O)c4ccn(C5(C)COC5)c4)n3)c2F)C[C@H](C)O1 [Compound 268] |  |
| > 1 µM | > 1 µM |  |  | Cn1ccc(-c2cccc(-c3csc(NC(=O)CNC(=O)c4ccn(CC(C)(C)O)c4)n3)c2)n1 [Compound 28, 1-(2-hydroxy-2-methylpropyl)-N-(2-((4-(3-(1-methyl-1H-pyrazol-3-yl)phenyl)thiazol-2-yl)amino)-2-oxoethyl)-1H-pyrrole-3-carboxamide] |  |
| < 0.01 µM | < 0.01 µM |  |  | CS(=O)(=O)n1ccc(C(=O)NCC(=O)Nc2nc(-c3cccc(-c4cccc(CN)c4)c3)cs2)c1 [Compound 53, N-(2-((4-(3′-(aminomethyl)-[1,1′-biphenyl]-3-yl)thiazol-2-yl)amino)-2-oxoethyl)-1-(methylsulfonyl)-1H-pyrrole-3-carboxamide] |  |
|  |  |  |  | COC[C@H](NC(=O)c1ccn(C2(C#N)CC2)n1)C(=O)Nc1nc(-c2cccc(-c3ccn(C)n3)c2)cs1 [Compound 815] | IC50 (BRG-1; read-out: BRG1 IP50): > 0.1 µM; IC50 (BRM; read-out: BRM IP50): > 0.1 µM |
| > 1 µM | > 1 µM |  |  | CN(C(=O)c1cccc(-c2csc(NC(=O)CNC(=O)c3ccn(S(C)(=O)=O)c3)n2)c1)c1ccccc1 [Compound 116, N-(2-((4-(3-(methyl(phenyl)carbamoyl)phenyl)thiazol-2-yl)amino)-2-oxoethyl)-1-(methylsulfonyl)-1H-pyrrole-3-carboxamide] |  |
| > 0.1 µM | > 0.01 µM |  |  | CC(OC1CCOCC1)c1cccc(-c2csc(NC(=O)CNC(=O)c3ccn(C(C)(C)C)c3)n2)c1 (stereo not drawn) [Compound 126, 1-(tert-butyl)-N-(2-oxo-2-((4-(3-(1-((tetrahydro-2H-pyran-4-yl)oxy)ethyl)phenyl)thiazol-2-yl)amino)ethyl)-1H-pyrrole-3-carboxamide] |  |
|  |  | > 0.01 µM | > 0.01 µM | Cn1ccc2ccc(-c3csc(NC(=O)CNC(=O)c4ccn(C5(C)CCC5)c4)n3)cc2c1=O [Compound 504] |  |
| > 0.01 µM | > 0.01 µM |  |  | COCCS(=O)(=O)n1ccc(C(=O)NCC(=O)Nc2nc(-c3cccc(N4C[C@@H](C)O[C@@H](C)C4)c3)cs2)c1 [Compound 193] |  |
